{
  "source": "patent US9931327B2",
  "about": "“Derivatives of 1-phenyl-2-pyridinyl alkyl alcohols as phosphodiesterase inhibitors” (Chiesi Farmaceutici S.p.A., priority 2011, dated 2018)",
  "data": [
    {"test_system": "LPS-induced TNF-α release in peripheral blood mononuclear cells (PBMCs)", "test": "In vitro determination of PDE4 inhibitory activity in the PBMCs assay (LPS-induced TNF-α release)", "type": "cell-based, human", "conditions": "PBMC; human PBMCs, LPS 3 ng/ml, 18 hours, TNF-α by ELISA; read-out: PDE4 inhibition (IC50, 50% inhibition of LPS-induced TNF-α release)", "how_it_was_run": "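Cryopreserved human PBMCs (10^5 cells/well) pre-incubated 30 min with compound (10^−12 to 10^−6 M or 10^−3 to 10^−7 M), then stimulated with LPS 3 ng/ml for 18 h at 37 °C. TNF-α in medium by ELISA; IC50 as mean ± 95% confidence limits.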", "units": {"IC50": "nM"}, "values": [
      {"compound": "O=C(O[C@@H](Cc1c(Cl)c[n+]([O-])cc1Cl)c1ccc(OC(F)F)c(OCC2CC2)c1)[C@@H]1CCCCN1S(=O)(=O)c1ccc(N2CCOCC2)nc1", "note": "[Compound 111, 3,5-dichloro-4-((S)-2-(3-(cyclopropylmethoxy)-4-(difluoromethoxy)phenyl)-2-((S)-1-(6-morpholinopyridin-3-ylsulfonyl)piperidine-2-carbonyloxy)ethyl)pyridine 1-oxide]", "IC50": "0.1 to 1"},
      {"compound": "CN(C)S(=O)(=O)c1cccc(S(=O)(=O)N2CCCC[C@H]2C(=O)O[C@@H](Cc2c(Cl)c[n+]([O-])cc2Cl)c2ccc(OC(F)F)c(OCC3CC3)c2)c1", "note": "[Compound 113, 3,5-dichloro-4-((S)-2-(3-(cyclopropylmethoxy)-4-(difluoromethoxy)phenyl)-2-((S)-1-(3-(N,N-dimethylsulfamoyl)phenylsulfonyl)piperidine-2-carbonyloxy)ethyl)pyridine 1-oxide]", "IC50": "< 0.1"},
      {"compound": "O=C(O[C@@H](Cc1c(Cl)c[n+]([O-])cc1Cl)c1ccc(OC(F)F)c(OCC2CC2)c1)[C@@H]1CCCCN1S(=O)(=O)c1ccccc1", "note": "[Compound 114, 3,5-dichloro-4-((S)-2-(3-(cyclopropylmethoxy)-4-(difluoromethoxy)phenyl)-2-((S)-1-(phenylsulfonyl)piperidine-2-carbonyloxy)ethyl)pyridine 1-oxide]", "IC50": "0.1 to 1"},
      {"compound": "COc1ccc(OC)c(S(=O)(=O)N2CCS[C@H]2C(=O)O[C@@H](Cc2c(Cl)c[n+]([O-])cc2Cl)c2ccc(OC(F)F)c(OCC3CC3)c2)c1", "note": "[Compound 115, 3,5-dichloro-4-((S)-2-(3-(cyclopropylmethoxy)-4-(difluoromethoxy)phenyl)-2-((S)-3-(2,5-dimethoxyphenylsulfonyl)thiazolidine-2-carbonyloxy)ethyl)pyridine 1-oxide]", "IC50": "< 0.1"},
      {"compound": "Cn1ccnc1S(=O)(=O)N1CCCC[C@H]1C(=O)O[C@@H](Cc1c(Cl)c[n+]([O-])cc1Cl)c1ccc(OC(F)F)c(OCC2CC2)c1", "note": "[Compound 116, 3,5-dichloro-4-((S)-2-(3-(cyclopropylmethoxy)-4-(difluoromethoxy)phenyl)-2-((S)-1-(1-methyl-1H-imidazol-2-ylsulfonyl)piperidine-2-carbonyloxy)ethyl)pyridine 1-oxide]", "IC50": "< 0.1"},
      {"compound": "CC(=O)c1cccc(S(=O)(=O)N2CCS[C@H]2C(=O)O[C@@H](Cc2c(Cl)c[n+]([O-])cc2Cl)c2ccc(OC(F)F)c(OCC3CC3)c2)c1", "note": "[Compound 117, 4-((S)-2-((S)-3-(3-acetylphenylsulfonyl)thiazolidine-2-carbonyloxy)-2-(3-(cyclopropylmethoxy)-4-(difluoromethoxy)phenyl)ethyl)-3,5-dichloropyridine 1-oxide]", "IC50": "0.1 to 1"},
      {"compound": "CNS(=O)(=O)c1cccc(S(=O)(=O)N2CCSC2C(=O)O[C@@H](Cc2c(Cl)c[n+]([O-])cc2Cl)c2ccc(OC(F)F)c(OCC3CC3)c2)c1", "note": "(stereo partly drawn) [Compound 118, 3,5-dichloro-4-((2S)-2-(3-(cyclopropylmethoxy)-4-(difluoromethoxy)phenyl)-2-(3-(3-(N-methylsulfamoyl)phenylsulfonyl)thiazolidine-2-carbonyloxy)ethyl)pyridine 1-oxide]", "IC50": "< 0.1"},
      {"compound": "Cn1cnc(S(=O)(=O)N2CCS[C@H]2C(=O)O[C@@H](Cc2c(Cl)c[n+]([O-])cc2Cl)c2ccc(OC(F)F)c(OCC3CC3)c2)c1", "note": "[Compound 119, 3,5-dichloro-4-((S)-2-(3-(cyclopropylmethoxy)-4-(difluoromethoxy)phenyl)-2-((S)-3-(1-methyl-1H-imidazol-4-ylsulfonyl)thiazolidine-2-carbonyloxy)ethyl)pyridine 1-oxide]", "IC50": "< 0.1"},
      {"compound": "CN(C)C(=O)c1cccc(S(=O)(=O)N2CCN(CC(=O)O[C@@H](Cc3c(Cl)c[n+]([O-])cc3Cl)c3ccc(OC(F)F)c(OCC4CC4)c3)CC2)c1", "note": "[Compound 121, (S)-3,5-dichloro-4-(2-(3-(cyclopropylmethoxy)-4-(difluoromethoxy)phenyl)-2-(2-(4-(3-(dimethylcarbamoyl)phenylsulfonyl)piperazin-1-yl)acetoxy)ethyl)pyridine 1-oxide]", "IC50": "0.1 to 1"},
      {"compound": "COc1ccc(S(=O)(=O)N2CCSC2C(=O)O[C@@H](Cc2c(Cl)c[n+]([O-])cc2Cl)c2ccc(OC(F)F)c(OCC3CC3)c2)cc1C(=O)N(C)C", "note": "(stereo partly drawn) [Compound 123, 3,5-dichloro-4-((2S)-2-(3-(cyclopropylmethoxy)-4-(difluoromethoxy)phenyl)-2-(3-(3-(dimethylcarbamoyl)-4-methoxyphenylsulfonyl)thiazolidine-2-carbonyloxy)ethyl)pyridine 1-oxide]", "IC50": "< 0.1"},
      {"compound": "COc1ccc(S(=O)(=O)N2CCC[C@H]2C(=O)O[C@@H](Cc2c(Cl)c[n+]([O-])cc2Cl)c2ccc(OC(F)F)c(OCC3CC3)c2)cc1C(=O)N(C)C", "note": "[Compound 124, 3,5-dichloro-4-((S)-2-(3-(cyclopropylmethoxy)-4-(difluoromethoxy)phenyl)-2-((S)-1-(3-(dimethylcarbamoyl)-4-methoxyphenylsulfonyl)pyrrolidine-2-carbonyloxy)ethyl)pyridine 1-oxide]", "IC50": "< 0.1"},
      {"compound": "CN(C)C(=O)c1ccc(S(=O)(=O)N2CCSC2C(=O)O[C@@H](Cc2c(Cl)c[n+]([O-])cc2Cl)c2ccc(OC(F)F)c(OCC3CC3)c2)cc1", "note": "(stereo partly drawn) [Compound 125, 3,5-dichloro-4-((2S)-2-(3-(cyclopropylmethoxy)-4-(difluoromethoxy)phenyl)-2-(3-(4-(dimethylcarbamoyl)phenylsulfonyl)thiazolidine-2-carbonyloxy)ethyl)pyridine 1-oxide]", "IC50": "0.1 to 1"},
      {"compound": "CN1CCN(C(=O)c2ccc(S(=O)(=O)N3CCSC3C(=O)O[C@@H](Cc3c(Cl)c[n+]([O-])cc3Cl)c3ccc(OC(F)F)c(OCC4CC4)c3)cc2)CC1", "note": "(stereo partly drawn) [Compound 126, 3,5-dichloro-4-((2S)-2-(3-(cyclopropylmethoxy)-4-(difluoromethoxy)phenyl)-2-(3-(4-(4-methylpiperazine-1-carbonyl)phenylsulfonyl)thiazolidine-2-carbonyloxy)ethyl)pyridine 1-oxide]", "IC50": "0.1 to 1"},
      {"compound": "COc1ccc(S(=O)(=O)N2CCSC2C(=O)O[C@@H](Cc2c(Cl)c[n+]([O-])cc2Cl)c2ccc(OC(F)F)c(OCC3CC3)c2)cc1C(=O)N1CCN(C)CC1", "note": "(stereo partly drawn) [Compound 127, 3,5-dichloro-4-((2S)-2-(3-(cyclopropylmethoxy)-4-(difluoromethoxy)phenyl)-2-(3-(4-methoxy-3-(4-methylpiperazine-1-carbonyl)phenylsulfonyl)thiazolidine-2-carbonyloxy)ethyl)pyridine 1-oxide]", "IC50": "0.1 to 1"},
      {"compound": "COc1ccc(S(=O)(=O)N2CCSC2C(=O)O[C@@H](Cc2c(Cl)c[n+]([O-])cc2Cl)c2ccc(OC(F)F)c(OCC3CC3)c2)cc1C(=O)N1CCOCC1", "note": "(stereo partly drawn) [Compound 128, 3,5-dichloro-4-((2S)-2-(3-(cyclopropylmethoxy)-4-(difluoromethoxy)phenyl)-2-(3-(4-methoxy-3-(morpholine-4-carbonyl)phenylsulfonyl)thiazolidine-2-carbonyloxy)ethyl)pyridine 1-oxide]", "IC50": "< 0.1"},
      {"compound": "COc1ccc(S(=O)(=O)N2CCCC[C@H]2C(=O)O[C@@H](Cc2c(Cl)c[n+]([O-])cc2Cl)c2ccc(OC(F)F)c(OCC3CC3)c2)cc1C(=O)N(C)C", "note": "[Compound 129, 3,5-dichloro-4-((S)-2-(3-(cyclopropylmethoxy)-4-(difluoromethoxy)phenyl)-2-((S)-1-(3-(dimethylcarbamoyl)-4-methoxyphenylsulfonyl)piperidine-2-carbonyloxy)ethyl)pyridine 1-oxide]", "IC50": "< 0.1"}
    ]}
  ]
}
